According to patent US20130071439A1, “METHODS AND COMPOSITIONS FOR TREATING BIOFILMS” (PRESIDENT AND FELLOWS OF HARVARD COLLEGE, priority 2010, published 2013):

Key:
[1] = system: B. subtilis strain NCIB3610; test: Pellicle (biofilm) formation in liquid biofilm-inducing medium; assay type: cell-based, Bacillus subtilis; settings: for biofilm-inhibition assay for B. subtilis: concentration not given; for minimum concentration (MIC) needed to prevent biofilm formation: complete inhibition of pellicle formation
Protocol: (§1) For colony formation on solid medium, cells were first grown to exponential growth phase in LB broth and 3 μl of culture were spotted onto solid MSgg medium containing 1.5% Bacto agar. The plates were incubated at 23° C. For pellicle formation in liquid medium, cells were grown to exponential phase and 6 μl of culture were mixed with 6 ml of medium in a 12-well plate (VWR). Plates were incubated at 23° C. Images of colonies and pellicles were taken using a SPOT camera (Diagnostic Instruments, USA).
To investigate whether mature biofilms produce a factor that triggers biofilm disassembly, the effect of concentrated and partially purified extracts of conditioned medium on pellicle formation when added to fresh medium was assayed. To this end, conditioned medium from an eight-day-old culture was applied to a C18 Sep Pak column. Concentrated eluate from the column was then added to a freshly inoculated culture. […] Further purification of the factor was achieved by eluting the cartridge in step-wise fashion with increasing concentrations of methanol.
D-tyrosine, D-leucine, D-tryptophan, and D-methionine were screened for inhibiting biofilm formation by B. subtilis both in liquid and on solid medium (FIG. 2A, 5, 6).
Next, the minimum concentration (MIC for Minimal Inhibitory Concentration) needed to prevent biofilm formation was determined.

[2] = system: Pseudomonas aeruginosa PA14; test: Biofilm formation on polystyrene, crystal violet staining; assay type: cell-based; settings: Pseudomonas aeruginosa, PA14, 48 h/30° C., Polystyrene, read-out: % Inhibition relative to control (0%, <50%, 50-90%, >90%)
Protocol: Crystal violet staining was done as described previously (O'Toole et al., Mol. Microbiol. 30:295 (1998)) except that the cells were grown in […]. Wells were stained with 500 μl of 1.0% Crystal-violet dye, rinsed twice with 2 ml double-distilled water and thoroughly dried.
P. aeruginosa strain […] was grown in 12-well polystyrene plates for 48 hours at 30° C. in M63 medium containing glycerol (0.2%) and Casamino acids ([…]). Additionally added to the wells were no amino acids (untreated), D-tyrosine or the D-amino acid equimolar mixture. Cells bound to the polystyrene were visualized by washing away unbound cells and then staining with crystal violet. Wells were stained with […] of 1.0% Crystal-violet dye, rinsed twice with 2 ml double-distilled water and thoroughly dried.
For experiments reported in Table 1, the organism/strain was S.a. Harvard SCO1, the culture medium was TSB and the cell inoculation was at 2×10^9 cfu. For experiments reported in Table 2, the organism/strain was […], the culture medium was M63 and the cell inoculation was at 1.5×10^9 cfu. Biofilm was visualized using the crystal violet method.

P.a. Harvard PA14 = test: Biofilm (colony architecture) formation on M63 defined solid medium; assay type: cell-based, Pseudomonas aeruginosa; settings: 500 μM (L-tryptophan: concentration not given)
Description: Similarly to Bacillus subtilis, Pseudomonas aeruginosa forms a complex architecture on defined medium. These complex structures require the proper formation and assembly of the extra-cellular matrix. […] For these experiments, the organism/strain was P.a. Harvard PA14, the culture medium was M63 and the cell inoculation was at 1.5×10^9 cfu.

[3] = system: B. subtilis strain NCIB3610; test: Colony biofilm formation on solid MSgg medium; assay type: cell-based, Bacillus subtilis; settings: 8.5 mM, 4 days
Protocol: as §1

[4] = system: yqxM operon (strain FC122); test: Expression of PyqxM-lacZ (β-galactosidase activity); assay type: cell-based, Bacillus subtilis; settings: 8.5 mM
Protocol: (§2) Assays of β-galactosidase activity. Cells were cultured in MSgg medium at 37° C. in a water bath with shaking 1 ml of culture was collected at each time point. β-galactosidase activity was determined as described previously (Chai et al., Mol. Microbiol. 67:254 (2008)).

B. subtilis = test: Effect on cell growth in MSgg medium with shaking; assay type: cell-based, Bacillus subtilis; settings: 8.5 mM
eps operon (strain FC5) = test: Expression of PepsA-lacZ (β-galactosidase activity); assay type: cell-based, Bacillus subtilis; settings: 8.5 mM
Protocol: as §2

In the case of `C[C@@H](N)C(=O)O` [D-alanine], the “biofilm-inhibition assay for B. subtilis” value [1] is reported as “not effective”.

For `N[C@H](Cc1ccccc1)C(=O)O` [D-Phe, D-phenylalanine], the “biofilm-inhibition assay for B. subtilis” value [1] was “not effective”.

`CSCC[C@@H](N)C(=O)O` [D-Met, D-methionine] was tested, and the “effect on biofilm formation” value ([1]; 2 mM in MSgg medium, 3 days) was “active in inhibiting biofilm formation”, the “minimum concentration (MIC) needed to prevent biofilm formation” value (from here on “minimum concentration (MIC) needed”) [1] was “around 1 mM” and the “biofilm-inhibition assay for B. subtilis” value [1] was “significant inhibition of biofilm growth”. The inhibition at 10 µM ([2]; 10 μM) was 0%, the inhibition at 100 µM ([2]; 100 μM) was 0% and the inhibition at 500 µM ([2]; 500 μM) was 0%.

For `CSCC[C@H](N)C(=O)O` [L-methionine, reference compound], the “effect on biofilm formation” value ([1]; 5 mM in MSgg medium, 3 days) was “Only the D-amino acids were active”.

`N[C@@H](Cc1ccc(O)cc1)C(=O)O` [L-Tyr, L-tyrosine, reference compound] was tested, and the “effect on biofilm formation on defined medium” value (“effect … on defined medium” for short) (P.a. Harvard PA14) was “did not”.

For `CC(C)C[C@@H](N)C(=O)O` [D-Leu, D-leucine], the “effect on pellicle formation” value ([1]; 8.5 mM added to freshly inoculated culture in biofilm-inducing medium, 3 days) was “significant inhibition of biofilm growth”, the “minimum concentration (MIC) needed” value [1] was “around 1 mM” and the “biofilm-inhibition assay for B. subtilis” value [1] was “significant inhibition of biofilm growth”. For the same compound, the “effect on biofilm formation on solid medium” value [3] was “inhibited biofilm formation”, the yqxM expression [4] was “substantially the same as the untreated sample” and the cell growth (B. subtilis) was “substantially the same as the untreated sample”. For the same compound, the eps expression (eps operon (strain FC5)) was “substantially the same as the untreated sample”.

For `N[C@@H](Cc1c[nH]c2ccccc12)C(=O)O` [L-tryptophan, reference compound], the “effect on biofilm formation” value ([1]; 5 mM in MSgg medium, 3 days) was “Only the D-amino acids were active” and the “effect … on defined medium” value (P.a. Harvard PA14) was “did not”.

For `N[C@H](Cc1c[nH]c2ccccc12)C(=O)O` [D-Trp, D-tryptophan], the “effect on biofilm formation” value ([1]; 0.5 mM in MSgg medium, 3 days) was “active in inhibiting biofilm formation”, the “minimum concentration (MIC) needed” value [1] was “around 1 mM” and the “biofilm-inhibition assay for B. subtilis” value [1] was “significant inhibition of biofilm growth”. For the same compound, the “effect … on defined medium” value (P.a. Harvard PA14) was “inhibited biofilm formation on defined medium”.
